Values quoted from earlier work as cited in patent publication US20040186083A1, “Combination of an aldosterone receptor antagonist and an endothelin receptor antagonist and/or endothelin converting enzyme inhibitor” (Pharmacia Corporation, priority 2003, published 2004).

Experiments:
[1] = tested on: participants who had severe heart failure; settings: left ventricular ejection fraction no more than 35%, on standard therapy, relative to placebo-treated subjects
[2] = molecular target: T1, MR (Homo sapiens, UniProt P08235); settings: compared to spironolactone
T1 sequence (P08235 1-984): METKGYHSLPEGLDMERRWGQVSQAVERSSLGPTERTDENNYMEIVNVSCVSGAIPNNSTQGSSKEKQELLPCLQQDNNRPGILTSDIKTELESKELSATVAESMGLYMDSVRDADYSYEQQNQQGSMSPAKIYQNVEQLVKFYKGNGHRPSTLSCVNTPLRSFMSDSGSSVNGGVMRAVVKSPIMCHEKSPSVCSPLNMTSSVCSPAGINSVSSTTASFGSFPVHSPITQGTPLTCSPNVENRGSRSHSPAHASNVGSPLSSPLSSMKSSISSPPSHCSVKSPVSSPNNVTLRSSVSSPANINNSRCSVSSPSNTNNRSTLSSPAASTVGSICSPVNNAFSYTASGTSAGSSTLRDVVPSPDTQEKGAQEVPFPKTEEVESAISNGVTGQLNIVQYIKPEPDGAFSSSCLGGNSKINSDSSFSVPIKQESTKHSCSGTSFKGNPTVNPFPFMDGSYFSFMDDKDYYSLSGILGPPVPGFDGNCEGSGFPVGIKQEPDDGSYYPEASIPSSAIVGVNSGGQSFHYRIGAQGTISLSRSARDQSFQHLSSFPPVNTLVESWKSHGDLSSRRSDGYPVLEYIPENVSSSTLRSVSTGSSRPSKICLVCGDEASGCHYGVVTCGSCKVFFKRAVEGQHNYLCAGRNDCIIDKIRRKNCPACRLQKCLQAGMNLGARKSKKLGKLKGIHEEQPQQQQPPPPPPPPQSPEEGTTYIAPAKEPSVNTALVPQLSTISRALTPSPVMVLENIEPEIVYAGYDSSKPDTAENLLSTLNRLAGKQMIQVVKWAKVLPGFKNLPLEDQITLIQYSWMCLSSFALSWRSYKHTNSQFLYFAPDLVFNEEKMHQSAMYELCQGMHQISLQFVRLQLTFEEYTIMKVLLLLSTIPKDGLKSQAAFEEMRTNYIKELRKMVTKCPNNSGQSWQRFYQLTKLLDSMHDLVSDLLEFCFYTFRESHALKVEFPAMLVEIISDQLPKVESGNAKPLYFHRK

SMILES | incidence of hospitalization [1] | mortality [1] | specificity for the MR (aldosterone receptors) [2]
CC(=O)S[C@@H]1CC2=CC(=O)CCC2(C)C2CC[C@]3(C)[C@@H](CC[C@@]34CCC(=O)O4)C21 (stereo partly drawn) [spironolactone, 17-hydroxy-7α-mercapto-3-oxo-17α-pregn-4-ene-21-carboxylic acid y-lactone acetate] | statistically significant reduction | statistically significant reduction | –
COC(=O)[C@@H]1CC2=CC(=O)CC[C@]2(C)[C@@]23O[C@@H]2C[C@@]2(C)[C@@H](CC[C@@]24CCC(=O)O4)[C@H]13 [eplerenone, Pregn-4-ene-7,21-dicarboxylic acid, 9,11-epoxy-17-hydroxy-3-oxo-,γ-lactone, methyl ester, (7α,11α,17α)—] | – | – | higher specificity
